Test results published in the supplement of paper PMC10307832.

Experiments:
Assay in all cases: relative viability (nuclei count vs DMSO), 5 days (fraction); higher = more cells survive
[1] = compound: CN(c1ncccc1CNc1nc(Nc2ccc3c(c2)CC(=O)N3)ncc1C(F)(F)F)S(C)(=O)=O + C[C@@H](Oc1cc(-c2cnn(C3CCNCC3)c2)cnc1N)c1c(Cl)ccc(F)c1Cl [Crizotinib] (partner 1 µM)
In short: (§1)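 For relative viability, nuclei counts in treated wells were divided by those in vehicle wells. Lung cancer cell lines had been pin-tool dosed in 1536-well plates the day after seeding and cultured for 5 days, then fixed and stained in one step (final 0.05% Triton X-100, 1% formaldehyde, 1 ug/ml Hoechst) and imaged at 4×. Doses were one drug alone or a fixed anchor-drug dose plus five library-drug doses (not always all listed) in √10 steps, and values are duplicate-plate medians.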

[2] = compound: CN(c1ncccc1CNc1nc(Nc2ccc3c(c2)CC(=O)N3)ncc1C(F)(F)F)S(C)(=O)=O + COc1cccc2cc(-c3nc([C@H]4CC[C@H](C(=O)O)CC4)n4ncnc(N)c34)[nH]c12 [OSI-027] (partner 0.5 µM)
In short: as §1

[3] = compound: CN(c1ncccc1CNc1nc(Nc2ccc3c(c2)CC(=O)N3)ncc1C(F)(F)F)S(C)(=O)=O + Cc1cc(Nc2cc(N3CCN(C)CC3)nc(Sc3ccc(NC(=O)C4CC4)cc3)n2)n[nH]1 [Tozasertib] (partner 0.1 µM)
In short: as §1

[4] = compound: CN(c1ncccc1CNc1nc(Nc2ccc3c(c2)CC(=O)N3)ncc1C(F)(F)F)S(C)(=O)=O + C[C@]1(O)C[C@@H](c2nc(-c3ccc4ccc(-c5ccccc5)nc4c3)c3c(N)nccn32)C1 [Linsitinib] (partner 1 µM)
In short: as §1

| Cell Line | relative viability ([1]; first compound 0.01 µM) | relative viability ([1]; first compound 0.03162 µM) | relative viability ([1]; first compound 0.1 µM) | relative viability ([1]; first compound 0.3162 µM) | relative viability ([1]; first compound 1 µM) | relative viability ([2]; first compound 0.01 µM) | relative viability ([2]; first compound 0.03162 µM) | relative viability ([2]; first compound 0.1 µM) | relative viability ([2]; first compound 0.3162 µM) | relative viability ([2]; first compound 1 µM) | relative viability ([3]; first compound 0.01 µM) | relative viability ([3]; first compound 0.03162 µM) | relative viability ([3]; first compound 0.1 µM) | relative viability ([3]; first compound 0.3162 µM) | relative viability ([3]; first compound 1 µM) | relative viability ([4]; first compound 0.01 µM) | relative viability ([4]; first compound 0.03162 µM) | relative viability ([4]; first compound 0.1 µM) | relative viability ([4]; first compound 0.3162 µM) | relative viability ([4]; first compound 1 µM) |
| --- | --- | --- | --- | --- | --- | --- | --- | --- | --- | --- | --- | --- | --- | --- | --- | --- | --- | --- | --- | --- |
| HCC-15 | 0.821 | 0.746 | 0.739 | 0.707 | 0.6 | 0.748 | 0.699 | 0.675 | 0.626 | 0.527 | 0.418 | 0.555 | 0.44 | 0.32 | 0.254 | 0.898 | 0.894 | 0.802 | 0.86 | 0.688 |
| PC-3 [JPC-3] | 0.968 | 0.992 | 1.02 | 0.927 | 0.841 | 0.722 | 0.742 | 0.739 | 0.805 | 0.768 | 0.903 | 0.907 | 0.913 | 0.847 | 0.832 | 0.984 | 1.01 | 0.938 | 0.925 | 0.835 |
| NCI-H1993 | 0.908 | 0.907 | 0.774 | 0.899 | 0.846 | 0.456 | 0.508 | 0.5 | 0.541 | 0.525 | 0.528 | 0.615 | 0.659 | 0.595 | 0.551 | 0.678 | 0.727 | 0.78 | 0.771 | 0.736 |
| NCI-H358 | 0.608 | 0.449 | 0.515 | 0.449 | 0.303 | 0.791 | 0.822 | 0.849 | 0.815 | 0.752 | 0.0908 | 0.102 | 0.0923 | 0.103 | 0.0817 | 0.739 | 0.727 | 0.626 | 0.705 | 0.666 |
| NCI-H1915 | 0.908 | 0.915 | 0.877 | 0.834 | 0.885 | 0.639 | 0.625 | 0.607 | 0.684 | 0.615 | 0.488 | 0.488 | 0.462 | 0.424 | 0.373 | 1.1 | 1.1 | 0.983 | 1.1 | 1.02 |
| RERF-LC-KJ | 0.841 | 0.823 | 0.85 | 0.779 | 0.86 | 0.632 | 0.585 | 0.529 | 0.656 | 0.573 | 0.468 | 0.466 | 0.467 | 0.514 | 0.348 | 0.838 | 0.964 | 0.877 | 0.83 | 0.933 |
| LOU-NH91 | 0.78 | 0.751 | 0.727 | 0.692 | 0.763 | 0.714 | 0.82 | 0.685 | 0.823 | 0.801 | 0.641 | 0.674 | 0.647 | 0.645 | 0.576 | 0.988 | 1.02 | 1.02 | 1.08 | 1.11 |
| NCI-H2347 | 0.698 | 0.692 | 0.61 | 0.661 | 0.658 | 0.339 | 0.416 | 0.326 | 0.449 | 0.314 | 0.544 | 0.626 | 0.672 | 0.44 | 0.478 | 0.938 | 0.98 | 0.852 | 0.947 | 0.817 |
| NCI-H2126 | 1.03 | 1.09 | 0.975 | 0.942 | 0.916 | 0.753 | 0.719 | 0.638 | 0.712 | 0.633 | 0.793 | 0.91 | 0.85 | 0.787 | 0.714 | 0.698 | 0.776 | 0.714 | 0.721 | 0.7 |
| HCC-827 | 0.893 | 0.905 | 1 | 0.893 | 0.851 | 0.765 | 0.775 | 0.821 | 0.799 | 0.759 | 0.372 | 0.455 | 0.401 | 0.436 | 0.43 | 0.999 | 0.915 | 0.93 | 0.905 | 0.914 |
| NCI-H3122 | 0.283 | 0.289 | 0.283 | 0.278 | 0.241 | 0.976 | 1.07 | 0.762 | 1.06 | 0.954 | 0.61 | 0.383 | 0.403 | 0.402 | 0.341 | 1.02 | 1.06 | 0.939 | 0.966 | 0.843 |
| HOP-62 | 0.926 | 1.04 | 0.962 | 0.809 | 1.04 | 0.956 | 0.804 | 0.743 | 0.825 | 0.731 | 0.408 | 0.42 | 0.391 | 0.318 | 0.262 | 0.843 | 1.09 | 1.06 | 0.786 | 0.933 |
| HCC-44 | 0.876 | 0.893 | 0.798 | 0.788 | 0.749 | 0.575 | 0.491 | 0.496 |  | 0.703 | 1.02 | 0.926 | 0.94 |  | 0.804 | 0.73 | 0.688 | 0.722 | 0.714 | 0.664 |
